Measurements: ChEMBL document CHEMBL5678807, “A selective jumonji H3K27 demethylase inhibitor modulates the proinflammatory macrophage response” (Nature, 2012)

How the values were obtained:
Macrophage [1] = test: Antiinflammatory activity in human primary macrophages assessed as effect on LPS-induced IL20 gene expression at 30 uM measured after 2 hrs by RT-PCR array (reference value: 2040 a.u.); type: functional
Macrophage [2] = test: Antiinflammatory activity in human primary macrophages assessed as effect on LPS-induced BMP6 gene expression at 30 uM measured after 2 hrs by RT-PCR array (reference value: 1526 a.u.); type: functional
Macrophage [3] = test: Antiinflammatory activity in human primary macrophages assessed as effect on LPS-induced IL6 gene expression at 30 uM measured after 2 hrs by RT-PCR array (reference value: 3511720 a.u.); type: functional
Macrophage [4] = test: Antiinflammatory activity in human primary macrophages assessed as effect on LPS-induced TNFSF13 gene expression at 30 uM measured after 2 hrs by RT-PCR array (reference value: 47108 a.u.); type: functional
Macrophage [5] = test: Antiinflammatory activity in human primary macrophages assessed as effect on LPS-induced IL19 gene expression at 30 uM measured after 2 hrs by RT-PCR array (reference value: 13781 a.u.); type: functional
Macrophage [6] = test: Antiinflammatory activity in human primary macrophages assessed as effect on LPS-induced INHBA gene expression at 30 uM measured after 2 hrs by RT-PCR array (reference value: 785853 a.u.); type: functional
Macrophage [7] = test: Antiinflammatory activity in human primary macrophages assessed as effect on LPS-induced IFNA2 gene expression at 30 uM measured after 2 hrs by RT-PCR array (reference value: 1099 a.u.); type: functional
Macrophage [8] = test: Antiinflammatory activity in human primary macrophages assessed as effect on LPS-induced TGFA gene expression at 30 uM measured after 2 hrs by RT-PCR array (reference value: 3224 a.u.); type: functional
Macrophage [9] = test: Antiinflammatory activity in human primary macrophages assessed as effect on LPS-induced FASLG gene expression at 30 uM measured after 2 hrs by RT-PCR array (reference value: 73 a.u.); type: functional
Macrophage [10] = test: Antiinflammatory activity in human primary macrophages assessed as effect on LPS-induced IL17C gene expression at 30 uM measured after 2 hrs by RT-PCR array (reference value: 157 a.u.); type: functional
Macrophage [11] = test: Antiinflammatory activity in human primary macrophages assessed as effect on LPS-induced TGFB3 gene expression at 30 uM measured after 2 hrs by RT-PCR array (reference value: 524 a.u.); type: functional
Macrophage [12] = test: Antiinflammatory activity in human primary macrophages assessed as effect on LPS-induced IL1F5 gene expression at 30 uM measured after 2 hrs by RT-PCR array (reference value: 2464 a.u.); type: functional
Macrophage [13] = test: Antiinflammatory activity in human primary macrophages assessed as effect on LPS-induced TNFSF11 gene expression at 30 uM measured after 2 hrs by RT-PCR array (reference value: 32 a.u.); type: functional
Macrophage [14] = test: Antiinflammatory activity in human primary macrophages assessed as effect on LPS-induced TNF gene expression at 30 uM measured after 2 hrs by RT-PCR array (reference value: 7222474 a.u.); type: functional
Macrophage [15] = test: Antiinflammatory activity in human primary macrophages assessed as effect on LPS-induced TNFSF13B gene expression at 30 uM measured after 2 hrs by RT-PCR array (reference value: 28045 a.u.); type: functional
Macrophage [16] = test: Antiinflammatory activity in human primary macrophages assessed as effect on LPS-induced IL10 gene expression at 30 uM measured after 2 hrs by RT-PCR array (reference value: 47621 a.u.); type: functional
Macrophage [17] = test: Cytotoxicity against LPS-induced human primary macrophages assessed as effect on cell viability measured after 4 hrs by WST-1 assay; type: toxicity, cell-based
Macrophage [18] = test: Antiinflammatory activity in human primary macrophages assessed as effect on LPS-induced IL1F6 gene expression at 30 uM measured after 2 hrs by RT-PCR array (reference value: 145 a.u.); type: functional
Macrophage [19] = test: Antiinflammatory activity in human primary macrophages assessed as effect on LPS-induced LTB gene expression at 30 uM measured after 2 hrs by RT-PCR array (reference value: 6025 a.u.); type: functional
D(2) dopamine receptor [20] = biological target: T1, D(2) dopamine receptor (Homo sapiens, UniProt P14416); test: Agonist activity at human dopamine 2 by SPA; type: functional
T1 sequence (P14416 whole entry): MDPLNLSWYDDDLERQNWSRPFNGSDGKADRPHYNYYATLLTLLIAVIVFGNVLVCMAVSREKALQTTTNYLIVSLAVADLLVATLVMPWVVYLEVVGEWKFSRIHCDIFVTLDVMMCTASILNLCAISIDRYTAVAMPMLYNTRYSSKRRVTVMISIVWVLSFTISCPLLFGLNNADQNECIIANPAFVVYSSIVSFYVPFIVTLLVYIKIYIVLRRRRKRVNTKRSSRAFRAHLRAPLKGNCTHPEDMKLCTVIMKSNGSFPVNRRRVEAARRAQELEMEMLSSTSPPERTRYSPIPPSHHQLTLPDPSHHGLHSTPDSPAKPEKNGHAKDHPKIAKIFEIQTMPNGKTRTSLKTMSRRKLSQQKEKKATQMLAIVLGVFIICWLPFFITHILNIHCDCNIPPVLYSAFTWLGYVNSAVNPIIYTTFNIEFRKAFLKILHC

Prolyl hydroxylase EGLN3 = Prolyl hydroxylase EGLN3 (Homo sapiens, UniProt Q9H6Z9); test: Inhibition of human EGLN3 by TR-FRET assay
Chain of Prolyl hydroxylase EGLN3 (Q9H6Z9 whole entry): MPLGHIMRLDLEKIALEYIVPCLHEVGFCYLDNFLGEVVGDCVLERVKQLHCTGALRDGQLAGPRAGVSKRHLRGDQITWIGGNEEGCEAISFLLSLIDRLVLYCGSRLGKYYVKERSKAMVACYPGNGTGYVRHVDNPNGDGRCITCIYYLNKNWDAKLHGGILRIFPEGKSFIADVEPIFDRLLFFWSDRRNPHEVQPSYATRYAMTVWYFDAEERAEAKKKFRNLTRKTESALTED

[21] = Drug uptake in human primary macrophage lysates at 30 uM measured after 1 hr by RP LC-MS/MS analysis; type: ADME, subcellular
[22] = Agonist activity at human 5-HT3 by intracellular Ca fluorescence assay; type: cell-based
[23] = biological target: T2, Muscarinic acetylcholine receptor M1 (Homo sapiens, UniProt P11229); test: Antagonist activity at human CHRM1 by intracellular Ca fluorescence assay; type: functional, cell-based
T2 sequence (P11229 whole entry): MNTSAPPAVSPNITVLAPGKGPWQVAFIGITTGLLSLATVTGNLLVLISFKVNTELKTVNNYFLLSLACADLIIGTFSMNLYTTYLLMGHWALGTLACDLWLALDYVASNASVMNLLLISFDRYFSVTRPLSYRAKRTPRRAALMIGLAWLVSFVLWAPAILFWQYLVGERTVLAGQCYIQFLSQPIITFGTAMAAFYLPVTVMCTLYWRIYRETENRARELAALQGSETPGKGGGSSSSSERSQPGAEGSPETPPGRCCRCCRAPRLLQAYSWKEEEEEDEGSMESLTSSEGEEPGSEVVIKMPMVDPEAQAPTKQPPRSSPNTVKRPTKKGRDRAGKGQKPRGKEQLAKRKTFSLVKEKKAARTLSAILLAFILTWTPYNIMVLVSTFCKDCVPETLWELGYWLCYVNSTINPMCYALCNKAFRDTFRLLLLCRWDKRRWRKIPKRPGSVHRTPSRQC

[24] = biological target: 5-hydroxytryptamine receptor 2A (Homo sapiens, UniProt P28223); test: Antagonist activity at human 5-HT2A by intracellular Ca luminescence assay; type: functional, cell-based
Chain of 5-hydroxytryptamine receptor 2A (P28223 whole entry): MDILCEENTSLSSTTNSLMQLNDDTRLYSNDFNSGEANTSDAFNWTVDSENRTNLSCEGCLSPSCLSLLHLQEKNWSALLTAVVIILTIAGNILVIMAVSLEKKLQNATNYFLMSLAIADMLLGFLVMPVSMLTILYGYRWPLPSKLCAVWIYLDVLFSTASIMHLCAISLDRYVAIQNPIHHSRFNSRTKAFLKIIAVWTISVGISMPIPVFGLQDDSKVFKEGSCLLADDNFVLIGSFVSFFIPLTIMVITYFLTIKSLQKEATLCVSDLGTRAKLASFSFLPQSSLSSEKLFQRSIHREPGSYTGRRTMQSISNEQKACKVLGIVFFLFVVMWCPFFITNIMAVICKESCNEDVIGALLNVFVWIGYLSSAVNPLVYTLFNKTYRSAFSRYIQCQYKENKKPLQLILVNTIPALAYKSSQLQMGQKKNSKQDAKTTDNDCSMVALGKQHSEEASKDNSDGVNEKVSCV

[25] = biological target: 5-hydroxytryptamine receptor 1B (Homo sapiens, UniProt P28222); test: Antagonist activity at human 5-HT1B by SPA; type: functional
Chain of 5-hydroxytryptamine receptor 1B (P28222 whole entry): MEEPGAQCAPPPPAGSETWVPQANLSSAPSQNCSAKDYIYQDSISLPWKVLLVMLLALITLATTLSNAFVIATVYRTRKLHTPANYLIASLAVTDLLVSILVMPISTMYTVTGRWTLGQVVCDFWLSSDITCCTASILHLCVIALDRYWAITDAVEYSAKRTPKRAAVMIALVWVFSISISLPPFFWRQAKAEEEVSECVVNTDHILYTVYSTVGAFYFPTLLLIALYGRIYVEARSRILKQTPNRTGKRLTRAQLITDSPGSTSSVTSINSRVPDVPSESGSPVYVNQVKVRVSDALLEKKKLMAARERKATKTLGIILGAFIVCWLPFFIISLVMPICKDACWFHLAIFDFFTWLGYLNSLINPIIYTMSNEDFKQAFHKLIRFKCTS

D(2) dopamine receptor [26] = biological target: T1, D(2) dopamine receptor; test: Antagonist activity at human dopamine 2 receptor by SPA; type: functional
Cannabinoid receptor 2 = Cannabinoid receptor 2 (Homo sapiens, UniProt P34972); test: Agonist activity at human cannabinoid CB2 receptor by Yeast FDGlu assay; type: functional
Chain of Cannabinoid receptor 2 (P34972 whole entry): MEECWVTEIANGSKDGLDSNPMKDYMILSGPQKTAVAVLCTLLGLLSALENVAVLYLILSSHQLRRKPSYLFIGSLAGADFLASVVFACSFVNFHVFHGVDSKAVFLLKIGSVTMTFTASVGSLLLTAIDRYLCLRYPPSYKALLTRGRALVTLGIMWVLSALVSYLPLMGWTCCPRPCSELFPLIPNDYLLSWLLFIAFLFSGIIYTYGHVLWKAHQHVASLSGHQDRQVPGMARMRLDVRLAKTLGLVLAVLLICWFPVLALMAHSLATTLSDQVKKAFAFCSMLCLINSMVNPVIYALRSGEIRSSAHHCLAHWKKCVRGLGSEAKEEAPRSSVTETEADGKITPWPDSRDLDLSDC

[27] = biological target: Protein deacetylase HDAC6 (Homo sapiens, UniProt Q9UBN7); test: Inhibition of human HDAC6 by FLINT assay
Chain of Protein deacetylase HDAC6 (Q9UBN7 whole entry): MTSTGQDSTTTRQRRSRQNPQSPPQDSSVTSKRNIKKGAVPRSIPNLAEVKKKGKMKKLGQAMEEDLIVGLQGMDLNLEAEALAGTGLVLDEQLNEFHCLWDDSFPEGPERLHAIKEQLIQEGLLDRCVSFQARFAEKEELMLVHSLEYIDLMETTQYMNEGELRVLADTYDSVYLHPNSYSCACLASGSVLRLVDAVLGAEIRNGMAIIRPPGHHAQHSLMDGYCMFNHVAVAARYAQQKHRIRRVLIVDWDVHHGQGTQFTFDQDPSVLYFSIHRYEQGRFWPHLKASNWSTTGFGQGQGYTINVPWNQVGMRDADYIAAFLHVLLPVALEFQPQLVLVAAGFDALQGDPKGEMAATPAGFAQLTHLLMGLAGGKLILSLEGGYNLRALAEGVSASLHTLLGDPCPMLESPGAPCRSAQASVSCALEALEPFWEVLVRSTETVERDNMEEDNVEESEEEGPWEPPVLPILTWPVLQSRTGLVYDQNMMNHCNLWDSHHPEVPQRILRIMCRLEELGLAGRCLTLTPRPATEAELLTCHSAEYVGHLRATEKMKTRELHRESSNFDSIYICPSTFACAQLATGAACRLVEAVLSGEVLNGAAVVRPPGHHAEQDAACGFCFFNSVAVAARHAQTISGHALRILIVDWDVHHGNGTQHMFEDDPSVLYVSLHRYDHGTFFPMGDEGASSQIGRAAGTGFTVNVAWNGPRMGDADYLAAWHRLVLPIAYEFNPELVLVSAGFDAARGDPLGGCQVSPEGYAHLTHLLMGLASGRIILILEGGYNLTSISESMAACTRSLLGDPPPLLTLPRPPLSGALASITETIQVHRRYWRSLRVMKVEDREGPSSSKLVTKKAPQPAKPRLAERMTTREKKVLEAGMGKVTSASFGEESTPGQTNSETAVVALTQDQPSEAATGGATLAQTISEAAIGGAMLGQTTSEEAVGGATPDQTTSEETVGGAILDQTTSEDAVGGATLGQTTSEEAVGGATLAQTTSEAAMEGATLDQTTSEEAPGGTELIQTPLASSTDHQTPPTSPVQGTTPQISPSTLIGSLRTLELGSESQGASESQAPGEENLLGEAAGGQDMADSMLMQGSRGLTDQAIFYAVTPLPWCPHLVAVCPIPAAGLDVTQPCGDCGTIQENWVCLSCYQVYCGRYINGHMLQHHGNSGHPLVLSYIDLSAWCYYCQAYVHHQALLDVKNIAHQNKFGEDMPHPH

[28] = biological target: Sodium-dependent noradrenaline transporter (Homo sapiens, UniProt P23975); test: Binding affinity to human NET by SPA
Chain of Sodium-dependent noradrenaline transporter (P23975 whole entry): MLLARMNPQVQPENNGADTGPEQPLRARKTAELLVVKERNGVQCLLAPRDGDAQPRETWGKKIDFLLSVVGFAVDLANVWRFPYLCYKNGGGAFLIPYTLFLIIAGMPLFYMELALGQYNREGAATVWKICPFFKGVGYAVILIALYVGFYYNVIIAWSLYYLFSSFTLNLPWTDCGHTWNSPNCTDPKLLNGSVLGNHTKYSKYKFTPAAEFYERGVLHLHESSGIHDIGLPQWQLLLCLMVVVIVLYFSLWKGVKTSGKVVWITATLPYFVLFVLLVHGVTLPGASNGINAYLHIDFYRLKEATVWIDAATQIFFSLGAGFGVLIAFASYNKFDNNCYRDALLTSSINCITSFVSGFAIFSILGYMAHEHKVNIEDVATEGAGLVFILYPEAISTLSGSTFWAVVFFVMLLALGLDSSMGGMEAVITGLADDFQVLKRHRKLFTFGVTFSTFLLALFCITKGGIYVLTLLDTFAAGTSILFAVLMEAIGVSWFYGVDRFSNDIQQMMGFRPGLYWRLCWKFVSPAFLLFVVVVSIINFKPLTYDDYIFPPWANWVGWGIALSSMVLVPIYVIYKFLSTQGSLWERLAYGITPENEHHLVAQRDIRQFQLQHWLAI

Histone deacetylase 1 = Histone deacetylase 1 (Homo sapiens, UniProt Q13547); test: Inhibition of human HDAC1 by FLINT assay
Chain of Histone deacetylase 1 (Q13547 whole entry): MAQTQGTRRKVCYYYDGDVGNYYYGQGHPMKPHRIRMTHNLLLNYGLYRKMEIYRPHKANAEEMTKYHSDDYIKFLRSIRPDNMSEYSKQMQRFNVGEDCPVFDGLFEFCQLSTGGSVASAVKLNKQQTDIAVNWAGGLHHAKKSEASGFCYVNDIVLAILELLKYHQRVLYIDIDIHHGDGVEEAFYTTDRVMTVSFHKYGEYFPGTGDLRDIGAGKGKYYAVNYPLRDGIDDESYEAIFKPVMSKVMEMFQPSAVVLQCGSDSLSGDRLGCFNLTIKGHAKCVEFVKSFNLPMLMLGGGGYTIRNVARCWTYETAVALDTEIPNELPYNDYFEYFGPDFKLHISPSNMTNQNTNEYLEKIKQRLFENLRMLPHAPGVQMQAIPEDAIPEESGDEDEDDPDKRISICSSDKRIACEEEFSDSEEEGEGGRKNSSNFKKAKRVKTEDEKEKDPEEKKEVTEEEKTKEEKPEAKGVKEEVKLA

SMILES | Activity (Macrophage [1]) | Activity (Macrophage [2]) | Activity (Macrophage [3]) | Activity (Macrophage [4]) | Activity (Macrophage [5]) | Activity (Macrophage [6]) | Activity (Macrophage [7]) | Activity (Macrophage [8]) | Activity (Macrophage [9]) | Activity (Macrophage [10]) | Activity (Macrophage [11]) | Activity (Macrophage [12]) | Activity (Macrophage [13]) | Activity (Macrophage [14]) | Activity (Macrophage [15]) | Activity (Macrophage [16]) | Activity (Macrophage [17]) | Activity (Macrophage [18]) | Activity (Macrophage [19]) | XC50 (D(2) dopamine receptor [20]) | also measured
CCOC(=O)CCNc1cc(N2CCc3ccccc3CC2)nc(-c2ccccn2)n1 | 372 a.u. | 293 a.u. | 242914 a.u. | 43866 a.u. | 1216 a.u. | 157533 a.u. | 641 a.u. | 3241 a.u. | 19 a.u. | 107 a.u. | 650 a.u. | 233 a.u. | 255 a.u. | 1593909 a.u. | 18715 a.u. | 4765 a.u. | Non-Toxic | 1 a.u. | 5493 a.u. | – | –
O=C(O)CCNc1cc(N2CCc3ccccc3CC2)nc(-c2ccccn2)n1 | – | – | – | – | – | – | – | – | – | – | – | – | – | – | – | – | Non-Toxic | – | – | > 100 µM | XC50 (Prolyl hydroxylase EGLN3): > 50 µM; Drug uptake [21]: 1.6 µM; XC50 [22]: > 50 µM; XC50 [23]: > 16 µM; XC50 [24]: > 40 µM; XC50 [25]: > 32 µM; XC50 (D(2) dopamine receptor [26]): > 100 µM; XC50 (Cannabinoid receptor 2): > 32 µM; XC50 [27]: > 300 µM; XC50 [28]: > 100 µM; XC50 (Histone deacetylase 1): > 300 µM
O=C(O)CCNc1cc(N2CCc3ccccc3CC2)nc(-c2cccnc2)n1 | – | – | – | – | – | – | – | – | – | – | – | – | – | – | – | – | Non-Toxic | – | – | > 100 µM | XC50 (Prolyl hydroxylase EGLN3): > 50 µM; Drug uptake [21]: 7.8 µM; XC50 [22]: > 50 µM; XC50 [23]: > 16 µM; XC50 [24]: > 40 µM; XC50 [25]: > 32 µM; XC50 (D(2) dopamine receptor [26]): > 100 µM; XC50 (Cannabinoid receptor 2): > 32 µM; XC50 [27]: > 300 µM; XC50 [28]: > 100 µM; XC50 (Histone deacetylase 1): > 300 µM
CCOC(=O)CCNc1cc(N2CCc3ccccc3CC2)nc(-c2cccnc2)n1 | 748 a.u. | 1399 a.u. | 1497395 a.u. | 39565 a.u. | 1914 a.u. | 558833 a.u. | 65 a.u. | 2862 a.u. | 45 a.u. | 253 a.u. | 357 a.u. | 2254 a.u. | 27 a.u. | 5261995 a.u. | 22792 a.u. | 31748 a.u. | Non-Toxic | 121 a.u. | 5856 a.u. | – | –
